Data reported in ChEMBL document CHEMBL3400000, “The discovery of potent agonists for GPR88, an orphan GPCR, for the potential treatment of CNS disorders” (Bioorg Med Chem Lett, 2015).

Target: G protein-coupled receptor 88 (Homo sapiens, UniProt Q9GZN0)
Assay: Agonist activity at GPR88 (unknown origin) transfected into cells assessed as cAMP accumulation by HTRF assay
Type: functional

Chain of G protein-coupled receptor 88 (Q9GZN0 whole entry): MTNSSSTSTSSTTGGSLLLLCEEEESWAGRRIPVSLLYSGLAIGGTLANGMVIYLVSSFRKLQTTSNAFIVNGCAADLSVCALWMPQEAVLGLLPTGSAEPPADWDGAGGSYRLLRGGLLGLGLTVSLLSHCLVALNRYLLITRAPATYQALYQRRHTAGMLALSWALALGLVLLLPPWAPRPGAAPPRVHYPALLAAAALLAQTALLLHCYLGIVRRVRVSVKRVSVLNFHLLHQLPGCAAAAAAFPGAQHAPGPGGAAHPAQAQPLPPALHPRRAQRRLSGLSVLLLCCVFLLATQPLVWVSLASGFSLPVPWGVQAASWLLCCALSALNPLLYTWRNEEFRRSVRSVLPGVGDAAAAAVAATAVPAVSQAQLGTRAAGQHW

Row | SMILES | EC50
1 | N[C@H](CN(C(=O)[C@@H]1C[C@H]1c1ccccc1)c1ccc(-c2ccccc2)cc1)c1ccccc1 | 4.7 nM
2 | CC(C)[C@H](N)CN(C(=O)[C@@H]1C[C@H]1c1ccccc1)c1ccc(-c2ccccc2)cc1 | 1.1 nM
3 | CO[C@H](C)[C@H](N)CN(C(=O)[C@@H]1C[C@H]1c1ccccc1)c1ccc(-c2ccccc2)cc1 | 0.68 nM
4 | NC1(CN(C(=O)[C@@H]2C[C@H]2c2ccccc2)c2ccc(-c3ccccc3)cc2)CCCC1 | 0.57 nM
5 | CC(C)(N)CN(C(=O)[C@@H]1C[C@H]1c1ccccc1)c1ccc(-c2ccccc2)cc1 | 1.4 nM
6 | CC(C)(C)[C@H](N)CN(C(=O)[C@@H]1C[C@H]1c1ccccc1)c1ccc(-c2ccccc2)cc1 | 11 nM
7 | O=C([C@@H]1C[C@H]1c1ccccc1)N(CC1CCCNC1)c1ccc(-c2ccccc2)cc1 (some centres undefined) | 10 nM
8 | CC(C)C[C@H](N)CCN(C(=O)[C@@H]1C[C@H]1c1ccccc1)c1ccc(-c2ccccc2)cc1 | 3 nM
9 | CCC(CC)C(N)CCN(C(=O)[C@@H]1C[C@H]1c1ccccc1)c1ccc(-c2ccccc2)cc1 (some centres undefined) | 2 nM
10 | CC(C)CCNCCN(C(=O)[C@@H]1C[C@H]1c1ccccc1)c1ccc(-c2ccccc2)cc1 | 5.1 nM
11 | CCC(C)CNCCN(C(=O)[C@@H]1C[C@H]1c1ccccc1)c1ccc(-c2ccccc2)cc1 (some centres undefined) | 4.7 nM
12 | O=C([C@@H]1C[C@H]1c1ccccc1)N(CCNCC1CCCCC1)c1ccc(-c2ccccc2)cc1 | 6.6 nM
13 | O=C([C@@H]1C[C@H]1c1ccccc1)N(CCNCC1CCCC1)c1ccc(-c2ccccc2)cc1 | 2.5 nM
14 | CC[C@H](C)[C@H](N)CN(C(=O)[C@@H]1C[C@H]1c1ccc(Cl)cc1)c1ccc(-c2ccccc2)cc1 | 4300 nM
15 | CC(C)C[C@H](N)CN(C(=O)C(C)Cc1ccccc1)c1ccc(-c2ccccc2)cc1 (some centres undefined) | 1.2 nM
16 | CC(C)CCCN(C(=O)[C@@H]1C[C@H]1c1ccccc1)c1ccc(-c2ccccc2)cc1 | > 100 nM
17 | CC(C)C[C@@H](N)CN(C(=O)[C@@H]1C[C@H]1c1ccccc1)c1ccc(-c2ccccc2)cc1 | 1.8 nM
18 | CN[C@@H](CC(C)C)CN(C(=O)[C@@H]1C[C@H]1c1ccccc1)c1ccc(-c2ccccc2)cc1 | 2 nM
19 | CC[C@H](C)[C@@H](CN(C(=O)[C@@H]1C[C@H]1c1ccccc1)c1ccc(-c2ccccc2)cc1)NC(C)=O | 5.8 nM
20 | CC[C@@H](C)[C@H](N)CN(C(=O)[C@@H]1C[C@H]1c1ccccc1)c1ccc(-c2ccccc2)cc1 | 1.4 nM
21 | N[C@@H](CC1CCCCC1)CN(C(=O)[C@@H]1C[C@H]1c1ccccc1)c1ccc(-c2ccccc2)cc1 | 1.7 nM
22 | N[C@H](CN(C(=O)[C@@H]1C[C@H]1c1ccccc1)c1ccc(-c2ccccc2)cc1)C1CCCCC1 | 0.66 nM
23 | CC[C@H](C)[C@H](N)CN(C(=O)[C@@H]1C[C@H]1c1ccccc1)c1ccc(-c2ccccc2)cc1 (racemic) | 800 nM
24 | CC(C)C[C@H](N)CN(C(=O)[C@@H]1C[C@H]1c1ccccc1)c1ccc(-c2ccccc2)cc1 (racemic) | 880 nM
